From US20230233569A1 (Revolution Medicines, Inc., priority 2020, published 2023)
Read-outs that look alike come from different tables or passages of the source.

Columns and labels:
Test in all cases: Ras-Raf disruption / FRET / MOA assay (BRAF RBD)
Assay type in all cases: biochemical
KRAS G12S = KRAS G12S (Homo sapiens, UniProt P01116+P62937, G12S); settings: with Cyclophilin A
Source text: (§1) Disruption of […] Ras-binding Domain (BRAF^RBD) Interaction with K-Ras by Compounds of the Invention (also Called a FRET Assay or an MOA Assay)
(§2) Note—The following protocol describes a procedure for monitoring disruption of K-Ras G12C (GMP-PNP) binding to BRAF^RBD by a compound of the invention. This protocol may also be executed substituting other Ras proteins or nucleotides, such as K-Ras G12D and K-Ras G13D.
(§3) The purpose of this biochemical assay was to measure the ability of test compounds to facilitate ternary complex formation between a nucleotide-loaded K-Ras isoform and Cyclophilin A; the resulting ternary complex disrupts binding to a BRAF^RBD construct, inhibiting K-Ras signaling through a RAF effector. Data is reported as IC50 values.
(§4) In assay buffer containing 25 mM HEPES pH 7.3, 0.002% Tween20, 0.1% BSA, 100 mM NaCl and 5 mM MgCl2, tagless Cyclophilin A, His6-K-Ras-GMPPNP, and GST-BRAF^RBD were combined in a 384-well assay plate at final concentrations of 25 μM, 12.5 nM, and 50 nM, respectively. Compound was present in plate wells as a 10-point 3-fold dilution series starting at a final concentration of 30 μM. After incubation at 25° C. for 3 hours, a mixture of anti-His Eu-W1024 and anti-GST allophycocyanin was then added to assay sample wells at final concentrations of 10 nM and 50 nM, respectively, and the reaction incubated for an additional 1.5 hours. […] Compounds that facilitate disruption of a K-Ras:RAF complex were identified as those eliciting a decrease in the TR-FRET ratio relative to DMSO control wells.

KRAS G13D = KRAS G13D (Homo sapiens, UniProt P01116+P62937, G13D); settings: with Cyclophilin A
Source text: as §1, §2, §3, §4

KRAS G12V = KRAS G12V (Homo sapiens, UniProt P01116+P62937, G12V); settings: with Cyclophilin A
Source text: as §1, §2, §3, §4

KRAS WT = KRAS WT (Homo sapiens, UniProt P01116+P62937); settings: with Cyclophilin A
Source text: as §1, §2, §3, §4

KRAS G12D = KRAS G12D (Homo sapiens, UniProt P01116+P62937, G12D); settings: with Cyclophilin A
Source text: as §1, §2, §3, §4

NRAS G12C = NRAS G12C (Homo sapiens, UniProt P01111+P62937, G12C)
Source text: as §1, §2, §3, §4

KRAS G13C = KRAS G13C (Homo sapiens, UniProt P01116+P62937, G13C); settings: with Cyclophilin A
Source text: as §1, §2, §3, §4

KRAS G12C = KRAS G12C (Homo sapiens, UniProt P01116+P62937, G12C); settings: with Cyclophilin A
Source text: as §1, §2, §3, §4
as §3, with “is” for “was”, “Ras” for “K-Ras”, “cyclophilin” for “Cyclophilin”, “effector.” for “effector. Data is reported as IC50 values.”
In assay buffer containing 25 mM HEPES pH 7.3, 0.002% Tween20, 0.1% BSA, 100 mM NaCl and 5 mM MgCl2, tagless Cyclophilin A, His6-K-Ras-GMPPNP (or other Ras variant), and GST-BRAF^RBD are combined in a 384-well assay plate at final concentrations of 25 μM, 12.5 nM and 50 nM, respectively. Compound is present in plate wells as a 10-point 3-fold dilution series starting at a final concentration of 30 μM. After incubation at 25° C. for 3 hours, a mixture of Anti-His Eu-W1024 and anti-GST allophycocyanin is then added to assay sample wells at final concentrations of 10 nM and 50 nM, respectively, and the reaction incubated for an additional 1.5 hours. […] Compounds that facilitate disruption of a Ras:RAF complex are identified as those eliciting a decrease in the TR-FRET ratio relative to DMSO control wells.

[1] = Ras-Raf disruption, read-out: KRAS G12S FRET data IC50
[2] = Ras-Raf disruption, read-out: KRAS G13D FRET data IC50
[3] = Ras-Raf disruption, read-out: KRAS G12V FRET data IC50
[4] = Ras-Raf disruption, read-out: KRAS WT FRET data IC50
[5] = Ras-Raf disruption, read-out: KRAS G12D FRET data IC50
[6] = NRAS G12C, read-out: NRAS G12C FRET data IC50
[7] = Ras-Raf disruption, read-out: KRAS G13C FRET data IC50
[8] = Ras-Raf disruption, read-out: KRAS G12C FRET data IC50

KRAS G12S, sequence (P01116 1-169 isoform P01116-2 G12S limits assumed): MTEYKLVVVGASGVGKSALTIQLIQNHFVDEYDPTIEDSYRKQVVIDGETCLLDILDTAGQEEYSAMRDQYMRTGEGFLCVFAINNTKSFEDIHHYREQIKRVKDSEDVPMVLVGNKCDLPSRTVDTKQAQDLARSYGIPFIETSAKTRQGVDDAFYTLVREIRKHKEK
KRAS G12S, sequence (P62937 whole entry, the tested form may be a part): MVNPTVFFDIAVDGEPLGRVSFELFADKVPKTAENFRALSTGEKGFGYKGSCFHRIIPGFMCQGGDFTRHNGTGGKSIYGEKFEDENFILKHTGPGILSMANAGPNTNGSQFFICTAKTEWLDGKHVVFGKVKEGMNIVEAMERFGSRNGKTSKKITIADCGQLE
KRAS G13C, sequence (P01116 1-169 isoform P01116-2 G13C limits assumed): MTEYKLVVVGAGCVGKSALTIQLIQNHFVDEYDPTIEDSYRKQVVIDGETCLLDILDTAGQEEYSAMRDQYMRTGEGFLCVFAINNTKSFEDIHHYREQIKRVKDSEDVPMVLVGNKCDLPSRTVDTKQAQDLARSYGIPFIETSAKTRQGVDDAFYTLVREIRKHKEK
KRAS G13C, sequence (P62937 whole entry): as the sequence (P62937 whole entry, the tested form may be a part) above
KRAS G12V, sequence (P01116 1-169 isoform P01116-2 G12V limits assumed): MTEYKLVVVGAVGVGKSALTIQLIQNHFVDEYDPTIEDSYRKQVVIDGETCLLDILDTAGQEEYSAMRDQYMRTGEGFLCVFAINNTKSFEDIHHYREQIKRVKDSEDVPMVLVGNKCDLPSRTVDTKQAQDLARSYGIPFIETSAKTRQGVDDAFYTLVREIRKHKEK
KRAS G12V, sequence (P62937 whole entry): as the sequence (P62937 whole entry, the tested form may be a part) above
KRAS G13D, sequence (P01116 1-169 isoform P01116-2 G13D limits assumed): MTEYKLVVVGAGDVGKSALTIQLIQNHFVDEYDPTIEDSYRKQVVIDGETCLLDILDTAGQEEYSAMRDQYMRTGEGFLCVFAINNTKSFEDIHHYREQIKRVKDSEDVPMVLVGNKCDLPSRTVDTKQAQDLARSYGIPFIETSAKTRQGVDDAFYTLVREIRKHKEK
KRAS G13D, sequence (P62937 whole entry): as the sequence (P62937 whole entry, the tested form may be a part) above
NRAS G12C, sequence (P01111 whole entry G12C): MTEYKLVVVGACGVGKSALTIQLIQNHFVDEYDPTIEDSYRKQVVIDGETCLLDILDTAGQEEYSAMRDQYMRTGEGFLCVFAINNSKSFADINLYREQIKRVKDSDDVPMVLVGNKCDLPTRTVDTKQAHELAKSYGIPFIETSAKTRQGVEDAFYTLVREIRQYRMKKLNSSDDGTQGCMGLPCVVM
NRAS G12C, sequence (P62937 whole entry): as the sequence (P62937 whole entry, the tested form may be a part) above
KRAS WT, sequence (P01116 1-169 isoform P01116-2 limits assumed): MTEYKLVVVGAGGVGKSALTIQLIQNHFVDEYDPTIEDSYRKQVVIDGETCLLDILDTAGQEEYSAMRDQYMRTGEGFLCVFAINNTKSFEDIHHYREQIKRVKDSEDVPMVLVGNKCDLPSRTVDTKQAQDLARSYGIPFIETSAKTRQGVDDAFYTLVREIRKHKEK
KRAS WT, sequence (P62937 whole entry): as the sequence (P62937 whole entry, the tested form may be a part) above
KRAS G12D, sequence (P01116 1-169 isoform P01116-2 G12D limits assumed): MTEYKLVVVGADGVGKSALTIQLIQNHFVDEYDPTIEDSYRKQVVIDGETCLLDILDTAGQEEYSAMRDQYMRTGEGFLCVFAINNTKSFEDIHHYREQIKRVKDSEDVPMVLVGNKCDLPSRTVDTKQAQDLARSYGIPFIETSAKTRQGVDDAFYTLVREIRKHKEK
KRAS G12D, sequence (P62937 whole entry): as the sequence (P62937 whole entry, the tested form may be a part) above
KRAS G12C, sequence (P01116 1-169 isoform P01116-2 G12C limits assumed): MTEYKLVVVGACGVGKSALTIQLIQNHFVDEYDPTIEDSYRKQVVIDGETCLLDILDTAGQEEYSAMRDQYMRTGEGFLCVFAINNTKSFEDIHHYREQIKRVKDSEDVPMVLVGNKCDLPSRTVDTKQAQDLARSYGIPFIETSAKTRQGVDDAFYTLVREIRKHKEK
KRAS G12C, sequence (P62937 whole entry): as the sequence (P62937 whole entry, the tested form may be a part) above

SMILES: CCn1c(-c2cccnc2[C@H](C)OC)c2c3cc(ccc31)-c1cc(O)cc(c1)C[C@H](NC(=O)[C@H](C(C)C)N1CC[C@@H](NC(=O)[C@@H]3CN3)C1=O)C(=O)N1CCC[C@H](N1)C(=O)OCC(C)(C)C2 [Example 129]
- IC50 (KRAS G12S; KRAS G12S FRET data IC50, Ras-Raf disruption): 10 to 100 nM
- IC50 (KRAS G13D; KRAS G13D FRET data IC50, Ras-Raf disruption): 10 to 100 nM
- IC50 (KRAS G12V; KRAS G12V FRET data IC50, Ras-Raf disruption): 100 to 1000 nM
- IC50 (KRAS WT; KRAS WT FRET data IC50, Ras-Raf disruption): 10 to 100 nM
- IC50 (KRAS G12D; KRAS G12D FRET data IC50, Ras-Raf disruption): 100 to 1000 nM
- IC50 (NRAS G12C; NRAS G12C FRET data IC50, NRAS G12C): 10 to 100 nM
- IC50 (KRAS G13C; KRAS G13C FRET data IC50, Ras-Raf disruption): < 10 nM
- IC50 (KRAS G12C; KRAS G12C FRET data IC50, Ras-Raf disruption): 10 to 100 nM

SMILES: CCn1c(-c2cccnc2[C@H](C)OC)c2c3cc(ccc31)-c1cc(O)cc(c1)C[C@H](NC(=O)[C@H](C(C)C)N(C)C(=O)[C@@H]1CCN(C(=O)[C@@H]3CN3)C1)C(=O)N1CCC[C@H](N1)C(=O)OCC(C)(C)C2 [Example 172]
- IC50 (KRAS G12S; [1]): 10 to 100 nM
- IC50 (KRAS G13D; [2]): 10 to 100 nM
- IC50 (KRAS G12V; [3]): 10 to 100 nM
- IC50 (KRAS WT; [4]): 10 to 100 nM
- IC50 (KRAS G12D; [5]): 100 to 1000 nM
- IC50 (NRAS G12C; [6]): 10 to 100 nM
- IC50 (KRAS G13C; [7]): 10 to 100 nM
- IC50 (KRAS G12C; [8]): 10 to 100 nM

SMILES: CCn1c(-c2cccnc2[C@H](C)OC)c2c3cc(ccc31)-c1cc(O)cc(c1)C[C@H](NC(=O)[C@H](C(C)C)N(C)C(=O)CC1CN(C(=O)[C@H]3CN3)C1)C(=O)N1CCC[C@H](N1)C(=O)OCC(C)(C)C2 [Example 179]
- IC50 (KRAS G12S; [1]): 100 to 1000 nM
- IC50 (KRAS G13D; [2]): 100 to 1000 nM
- IC50 (KRAS G12V; [3]): 100 to 1000 nM
- IC50 (KRAS WT; [4]): 100 to 1000 nM
- IC50 (KRAS G12D; [5]): 100 to 1000 nM
- IC50 (NRAS G12C; [6]): 10 to 100 nM
- IC50 (KRAS G13C; [7]): 10 to 100 nM
- IC50 (KRAS G12C; [8]): 10 to 100 nM

SMILES: CCn1c(-c2cccnc2[C@H](C)OC)c2c3cc(ccc31)-c1cccc(c1)C[C@H](NC(=O)[C@H](C(C)C)N(C)C(=O)[C@H]1CC[C@H](N=C=NC34CC(C3)C4)C1)C(=O)N1CCC[C@H](N1)C(=O)OCC(C)(C)C2 [Example 123]
- IC50 (KRAS G12S; [1]): > 10000 nM
- IC50 (KRAS G13D; [2]): > 10000 nM
- IC50 (KRAS G12V; [3]): 1000 to 10000 nM
- IC50 (KRAS WT; [4]): 1000 to 10000 nM
- IC50 (KRAS G12D; [5]): 1000 to 10000 nM
- IC50 (NRAS G12C; [6]): 100 to 1000 nM
- IC50 (KRAS G13C; [7]): 100 to 1000 nM
- IC50 (KRAS G12C; [8]): 100 to 1000 nM

SMILES: CCn1c(-c2cccnc2[C@H](C)OC)c2c3cc(ccc31)-c1csc(n1)C[C@H](NC(=O)[C@H](C(C)C)N(C)C(=O)N1CCN(C(=O)[C@H]3CN3)CC1)C(=O)N1CCC[C@H](N1)C(=O)OCC(C)(C)C2 [Example 169]
- IC50 (KRAS G12S; [1]): 10 to 100 nM
- IC50 (KRAS G13D; [2]): 100 to 1000 nM
- IC50 (KRAS G12V; [3]): 100 to 1000 nM
- IC50 (KRAS WT; [4]): 10 to 100 nM
- IC50 (KRAS G12D; [5]): 100 to 1000 nM
- IC50 (NRAS G12C; [6]): 10 to 100 nM
- IC50 (KRAS G13C; [7]): 10 to 100 nM
- IC50 (KRAS G12C; [8]): 10 to 100 nM

SMILES: CCn1c(-c2cnccc2COC)c2c3cc(ccc31)-c1cccc(c1)C[C@H](NC(=O)[C@H](C(C)C)N(C)C(=O)CCN=C=NCCOC)C(=O)N1CCC[C@H](N1)C(=O)OCC(C)(C)C2 [23 A and B]
- IC50 (KRAS G12S; [1]): 1000 to 10000 nM
- IC50 (KRAS G13D; [2]): > 10000 nM
- IC50 (KRAS G12V; [3]): > 10000 nM
- IC50 (KRAS WT; [4]): 1000 to 10000 nM
- IC50 (KRAS G12D; [5]): 1000 to 10000 nM
- IC50 (NRAS G12C; [6]): 10 to 100 nM
- IC50 (KRAS G13C; [7]): 1000 to 10000 nM
- IC50 (KRAS G12C; [8]): 10 to 100 nM

SMILES: CCn1c(-c2cccnc2[C@H](C)OC)c2c3cc(ccc31)-c1cc(O)cc(c1)C[C@H](NC(=O)[C@H](C(C)C)N1CC[C@@]3(CCN(C(=O)[C@@H]4N[C@@H]4C4CC4)C3)C1=O)C(=O)N1CCC[C@H](N1)C(=O)OCC(C)(C)C2 [Example 128]
- IC50 (KRAS G12S; [1]): 100 to 1000 nM
- IC50 (KRAS G13D; [2]): 100 to 1000 nM
- IC50 (KRAS G12V; [3]): 100 to 1000 nM
- IC50 (KRAS WT; [4]): 100 to 1000 nM
- IC50 (KRAS G12D; [5]): 100 to 1000 nM
- IC50 (NRAS G12C; [6]): 10 to 100 nM
- IC50 (KRAS G13C; [7]): 10 to 100 nM
- IC50 (KRAS G12C; [8]): 10 to 100 nM
